Experimental findings from ChEMBL document CHEMBL1201862, “PubChem BioAssay data set” (2004) are described below.

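96-well plates; 48 h exposure; 5 concentrations. Endpoints by linear interpolation between flanking doses. Not reached: highest tested concentration assigned. GI50 = concentration required for 50% inhibition of growth.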 The source made the active and inactive calls. No stated cut-off is given here; in the data, active = GI50 up to about 1.1 µM and inactive = higher. Some results are limits rather than exact numbers.

Test systems include OVCAR-4; SNB-19; SF-539; Malme-3M; COLO 205; A498; LOX IMVI; MOLT-4; NCI-H226; HCT-15; HL-60; OVCAR-8; NCI-H23; NCI/ADR-RES; EKVX; SK-MEL-5; NCI-H460; SF-268; HOP-62; RXF 393.
Assay in all cases: growth of human tumour cells (NCI), 48 h

Take `NC(=O)CN1CC(C2=C(O)CN(CC(N)=O)C2=O)=CC1=O`: the GI50 in the assay with OVCAR-4, in the assay on SNB-19, with SF-539, with Malme-3M, in the assay with COLO 205 and in the assay with A498 was > 100 µM (inactive) in each case. The GI50 was > 100 µM (inactive) in the assay on LOX IMVI; > 100 µM (inactive) with MOLT-4; > 100 µM (inactive) in the assay on NCI-H226; over 100 µM with HCT-15; > 100 µM (inactive) with HL-60; > 100 µM (inactive) in the assay on OVCAR-8. The GI50 in the assay with NCI-H23, in the assay on NCI/ADR-RES, in the assay with EKVX, with SK-MEL-5, in the assay on NCI-H460 and in the assay on SF-268 was > 100 µM (inactive) each time. Besides, the GI50 in the assay with HOP-62 is > 100 µM (inactive).
Regarding `c1ccc(Cc2cccc3cc(-c4ccc(-c5ccccc5)cc4)[nH]c23)cc1`, the GI50 with OVCAR-4 was 19.7 µM (inactive); in the assay on SNB-19 it was 93.3 µM (inactive); in the assay on SF-539 it was 53.8 µM (inactive); in the assay on Malme-3M it was 1.76 µM (inactive); with COLO 205, > 100 µM (inactive); with LOX IMVI it was > 100 µM (inactive). The GI50 with MOLT-4 is > 100 µM (inactive); in the assay on NCI-H226, > 100 µM (inactive); in the assay with HCT-15, over 100 µM; in the assay on HL-60, > 100 µM (inactive); in the assay with OVCAR-8 it was 45.8 µM (inactive); with NCI-H23 it was > 100 µM (inactive). In addition, the GI50 in the assay with NCI/ADR-RES is > 100 µM (inactive); with EKVX, > 100 µM (inactive); in the assay on SK-MEL-5, > 100 µM (inactive); in the assay on NCI-H460, > 100 µM (inactive); with SF-268, 32.7 µM (inactive); with HOP-62 it was 31.5 µM (inactive).
On to `O=C(CSC1=NC(=O)C2(NN1)c1ccccc1-c1ccccc12)NC(=S)Nc1ccccc1`, for which the GI50 in the assay on OVCAR-4, with SNB-19, with SF-539, with Malme-3M, with COLO 205 and with LOX IMVI was > 10 µM (inactive) throughout. Further, the GI50 with MOLT-4 was 9.14 µM (inactive); in the assay on NCI-H226 it was 8.2 µM (inactive); in the assay on HCT-15, over 10 µM; with RXF 393, > 10 µM (inactive); in the assay with HL-60, > 10 µM (inactive); in the assay with OVCAR-8, > 10 µM (inactive). The GI50 in the assay on NCI-H23 was > 10 µM (inactive); in the assay on NCI/ADR-RES, 7.76 µM (inactive); in the assay on EKVX, 4.04 µM (inactive); in the assay with SK-MEL-5, > 10 µM (inactive); in the assay with NCI-H460, > 10 µM (inactive); in the assay on SF-268, > 10 µM (inactive). For the same molecule, the GI50 in the assay on HOP-62 was > 10 µM (inactive).
On to `NC(=O)N/N=C1\CCCCc2ccccc21`, for which the GI50 in the assay with OVCAR-4, in the assay on SNB-19, in the assay on Malme-3M, in the assay on COLO 205, with MOLT-4 and in the assay on NCI-H226 was > 10 µM (inactive) throughout. Moreover, the GI50 with HCT-15 is over 10 µM; with RXF 393, > 10 µM (inactive); in the assay on OVCAR-8, > 10 µM (inactive); with NCI-H23, > 10 µM (inactive); with NCI/ADR-RES, > 10 µM (inactive); with EKVX it was > 10 µM (inactive). Besides, the GI50 in the assay on NCI-H460, in the assay on SF-268 and in the assay with HOP-62 was > 10 µM (inactive) throughout.
On to `Cc1nc2c(=S)n(C)ncc2[nH]1`, for which the GI50 with OVCAR-4 is > 100 µM (inactive); in the assay on SF-539 it was > 100 µM (inactive); with Malme-3M it was 0.0133 µM (active); in the assay on COLO 205, > 100 µM (inactive); in the assay with A498, > 100 µM (inactive); in the assay with LOX IMVI, > 100 µM (inactive). For the same molecule, the GI50 in the assay on MOLT-4 was > 100 µM (inactive); with NCI-H226, > 100 µM (inactive); with HCT-15, over 100 µM; in the assay with HL-60 it was > 100 µM (inactive); with OVCAR-8, > 100 µM (inactive); with NCI-H23, > 100 µM (inactive). Further, the GI50 with NCI/ADR-RES, in the assay with EKVX, in the assay on SK-MEL-5 and in the assay with HOP-62 was > 100 µM (inactive) each time.
As to `COc1c(N2CCCCC2)c2c(=O)c3ccccc3oc2c2c3ccccc3n(C)c12`, the GI50 in the assay with OVCAR-4 was > 100 µM (inactive); in the assay with SNB-19, > 100 µM (inactive); with SF-539 it was > 100 µM (inactive); with Malme-3M, > 100 µM (inactive); with COLO 205, 26.2 µM (inactive); in the assay with LOX IMVI, > 100 µM (inactive). For the same molecule, the GI50 is 54.8 µM (inactive) in the assay with MOLT-4; > 100 µM (inactive) in the assay with NCI-H226; over 100 µM in the assay on HCT-15; 94.6 µM (inactive) with RXF 393; 57.3 µM (inactive) in the assay with HL-60; > 100 µM (inactive) in the assay on OVCAR-8. In addition, the GI50 in the assay with NCI-H23, in the assay on NCI/ADR-RES, in the assay with EKVX, with SK-MEL-5, in the assay on NCI-H460 and in the assay on SF-268 was > 100 µM (inactive) in each case. Besides, the GI50 with HOP-62 is > 100 µM (inactive).
As for `Nc1ncnc2c1ncn2C1C=CC(COS(N)(=O)=O)C1` (stereo not drawn), the GI50 was 34.3 µM (inactive) in the assay with OVCAR-4; 9.23 µM (inactive) in the assay on SNB-19; 0.676 µM (active) with SF-539; > 100 µM (inactive) in the assay on Malme-3M; 16.9 µM (inactive) in the assay with COLO 205; 5.53 µM (inactive) with LOX IMVI. The GI50 is 7.85 µM (inactive) with MOLT-4; 55.1 µM (inactive) in the assay with NCI-H226; 9.27 µM in the assay on HCT-15; 12.4 µM (inactive) with RXF 393; 4.19 µM (inactive) with HL-60; 13.1 µM (inactive) in the assay with OVCAR-8. Further, the GI50 was 9.77 µM (inactive) in the assay on NCI-H23; 66.2 µM (inactive) in the assay with NCI/ADR-RES; > 100 µM (inactive) in the assay on EKVX; 30.4 µM (inactive) with SK-MEL-5; 12.2 µM (inactive) in the assay with NCI-H460; 33.7 µM (inactive) in the assay with SF-268. In addition, the GI50 with HOP-62 is 16.8 µM (inactive).
Turning to `O=CNNC(=O)Nc1cccc2ccccc12`, the GI50 in the assay with OVCAR-4, in the assay on SNB-19, in the assay on SF-539, in the assay with Malme-3M, with COLO 205 and in the assay on MOLT-4 was > 100 µM (inactive) in each case. Besides, the GI50 with NCI-H226 is 67.1 µM (inactive); in the assay with HCT-15 it was over 100 µM; in the assay with RXF 393, > 100 µM (inactive); with HL-60, > 100 µM (inactive); with OVCAR-8, > 100 µM (inactive); in the assay with NCI-H23 it was > 100 µM (inactive). Moreover, the GI50 in the assay on NCI/ADR-RES, in the assay with EKVX, with SK-MEL-5, with NCI-H460, in the assay on SF-268 and with HOP-62 was > 100 µM (inactive) in each case.
